This note sets out measurements from patent EP4737445A1, “NOVEL SATURATED HETEROCYCLE-SUBSTITUTED HETEROARYL-CARBONOHYDRAZONOYL DICYANIDE COMPOUND AND USE THEREOF” (Korea Institute of Science and Technology, priority 2023, dated 2025).

The target in one data set is T1, TDP-43 protein (Homo sapiens, UniProt Q13148).
T1 construct: BiFC fluorescent-protein fragments (two complementary halves); expressed in transfected cells
The experiment in a line: TDP-43 aggregation inhibition in TDP-43-BiFC cell model (Forskolin-induced). In kind it is cell-based. To be noted: for inhibition at 3 µM: read-out: TDP-43 protein aggregation inhibitory effect: Aggregation inhibitory effect (%) (@3 uM). The procedure:
To screen for new TDP-43 aggregation inhibitors, a TDP-43-BiFC cell model that facilitates observation of TDP-43 aggregate formation in living cells was used. Specifically, TDP-43-BiFC cells were dispensed into a 384-well plate, and the next day, the compounds prepared according to Examples 1 to 46 were treated at concentrations of 3 and 10 µM, respectively, together with Forskolin (treatment concentration 30 µM), which is a compound that induces TDP-43 aggregation by activating the phosphorylation enzyme PKA. After 48 hours, nuclei within cells were stained using Hoechst (treatment concentration 1 µg/mL), and BiFC fluorescence intensity was automatically quantified using Operetta (PerkinElmer) to count the stained nuclei in each well from the entire plate. The group treated only with Forskolin, which induces TDP-43 aggregation, was set as the reference point with 100% TDP-43 aggregation state, and the effect was confirmed by the formula "(BiFC fluorescence intensity by the compounds synthesized according to the Examples of the disclosure - fluorescence intensity of the untreated control group)/(fluorescence intensity of the control group treated only with Forskolin that induces TDP-43 aggregation - fluorescence intensity of the untreated control group) × 100". In addition, the degree of cytotoxicity induced by the newly synthesized compounds was also calculated using the formula "(number of stained nuclei in the compound-treated group/number of stained nuclei in the Forskolin-treated group) × 100", with the group treated only with Forskolin as the reference point at 100% viability. From the treatment results, substances that inhibit intracellular TDP-43 aggregation were identified through screening from a series of candidates based on the criteria of 80% or more TDP-43 aggregation inhibition and 60% cell viability at a compound treatment concentration of 3 µM.
Furthermore, to confirm the TDP-43 aggregation inhibitory effect according to the concentration of the compounds screened in Experimental Example 3, the screened compounds were treated to […] at concentrations of 0.003, 0.01, 0.03, 0.1, 0.3, 1, 3, and 10 µM, respectively, together with Forskolin (treatment concentration 30 µM), which is a TDP-43 aggregation-inducing substance. After 48 hours, cell images were examined to analyze the TDP-43 aggregation reaction and degree of cytotoxicity. The IC50 and toxicity of the compounds were analyzed by nonlinear regression analysis using Prism software (GraphPad). The calculated results for representative compounds are shown in Table 4 below: TDP-43 protein aggregation inhibitory effect and cell viability of novel compounds.

Data set [1] in a line: Liver microsomal stability, mouse. In kind it is in vitro ADME. To be noted: 1 µM compound; 0.5 mg/mL microsomes; NADPH; 30 minutes at 37°C. As for the experimental part:
Liver microsomal stability by the compounds prepared according to Examples 1 to 46 was confirmed. Specifically, four types of liver microsomes (human, dog, rat, and mouse each at 0.5 mg/mL), 0.1 M phosphate buffer solution (pH 7.4), and the compounds at 1 µM concentration were added and pre-incubated at 37°C for 5 minutes, and then NADPH generation system solution was added and incubated at 37°C for an additional 30 minutes. Thereafter, an acetonitrile solution containing an internal standard (chloropropamide) was added to terminate the reaction, and after centrifugation for 5 minutes (14,000 rpm, 4°C), the supernatant was injected into an LC-MS/MS system to analyze the substrate drug, thereby evaluating the metabolic stability of 8 compounds.
The amount of remaining substrate through the reaction was analyzed using a Shimadzu Nexera XR system and TSQ vantage (Thermo). A Kinetex XB-C18 (2.1 × 100 mm, 2.6 µm, particle size; Phenomenex, USA) was used as the HPLC column, and (A) distilled water containing 0.1% formic acid and (B) acetonitrile containing 0.1% formic acid were used as mobile phases. Analyst software (version 1.6.3) and Xcalibur (version 1.6.1) were used for data analysis. The calculated results are shown in Table 5 below: Liver microsomal stability data of novel compounds from […] (human, rat, and mouse).

For a further data set, the target named is T2, Tau (Homo sapiens, UniProt P10636).
T2 construct: BiFC fluorescent-protein fragments (two complementary halves on two tau copies); expressed in transfected cells
T2 sequence (P10636 1-441 isoform P10636-8): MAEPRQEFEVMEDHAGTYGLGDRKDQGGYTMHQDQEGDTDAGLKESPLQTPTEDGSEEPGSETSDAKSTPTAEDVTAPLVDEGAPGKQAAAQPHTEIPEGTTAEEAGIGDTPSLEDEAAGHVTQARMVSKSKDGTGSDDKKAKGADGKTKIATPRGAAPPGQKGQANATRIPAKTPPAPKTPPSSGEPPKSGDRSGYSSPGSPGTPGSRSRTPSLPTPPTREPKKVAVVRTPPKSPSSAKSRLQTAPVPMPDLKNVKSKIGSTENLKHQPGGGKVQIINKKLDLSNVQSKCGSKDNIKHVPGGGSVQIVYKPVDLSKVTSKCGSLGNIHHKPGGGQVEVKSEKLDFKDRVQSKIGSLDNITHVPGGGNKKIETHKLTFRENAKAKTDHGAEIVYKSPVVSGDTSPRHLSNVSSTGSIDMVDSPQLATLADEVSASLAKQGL
The experiment in a line: Tau aggregation inhibition in Tau-BiFC cell model (Forskolin-induced). It counts as cell-based. As for the experimental part:
To screen for new tau aggregation inhibitors, a Tau-BiFC cell model that facilitates observation of tau oligomer formation in living cells was used. Tau-BiFC cells were dispensed into a 384-well plate, and the next day, the compounds prepared according to Examples 1 to 46 were treated at concentrations of 1, 3, and 10 µM, respectively, together with Forskolin (treatment concentration 30 µM), which is a compound that induces tau aggregation by activating the tau phosphorylation enzyme PKA. After 48 hours, nuclei within cells were stained using Hoechst (treatment concentration 2 µg/mL), and BiFC fluorescence intensity was automatically quantified using Operetta (Perkin Elmer) to count the stained nuclei in each well from the entire plate. The group treated only with Forskolin, which induces tau aggregation, was set as the reference point with 100% tau aggregation state, and the effect was confirmed by the formula "BiFC fluorescence intensity by the compounds synthesized according to the Examples of the disclosure/(fluorescence intensity of the control group treated only with Forskolin that induces tau aggregation - fluorescence intensity of the untreated control group) × 100". In addition, the degree of cytotoxicity induced by the newly synthesized compounds was also calculated using the formula "(number of stained nuclei in the compound-treated group/number of stained nuclei in the Forskolin-treated group) × 100", with the group treated only with Forskolin as the reference point at 100% viability. From the treatment results, substances that inhibit intracellular tau aggregation were identified through screening from a series of candidates based on the criteria of 70% or more tau aggregation inhibition and 100% cell viability at a compound treatment concentration of 10 µM.
To confirm the tau aggregation inhibitory effect according to the concentration of the compounds screened in Experimental Example 1, the screened compounds were treated to Tau-BiFC cells at concentrations of 0.03, 0.1, 0.3, 1, 3, 10, and 30 µM, respectively, together with Forskolin (treatment concentration 30 µM), which is a tau aggregation-inducing substance. After 48 hours, cell images were examined to analyze the tau aggregation reaction and degree of cytotoxicity. The IC50 and toxicity of the compounds were analyzed by nonlinear regression analysis using Prism software (GraphPad). The calculated results for representative compounds are shown in Table 3 below: Tau aggregation inhibitory effect and cell viability of novel compounds.

T1 sequence (Q13148 whole entry, the tested form may be a part): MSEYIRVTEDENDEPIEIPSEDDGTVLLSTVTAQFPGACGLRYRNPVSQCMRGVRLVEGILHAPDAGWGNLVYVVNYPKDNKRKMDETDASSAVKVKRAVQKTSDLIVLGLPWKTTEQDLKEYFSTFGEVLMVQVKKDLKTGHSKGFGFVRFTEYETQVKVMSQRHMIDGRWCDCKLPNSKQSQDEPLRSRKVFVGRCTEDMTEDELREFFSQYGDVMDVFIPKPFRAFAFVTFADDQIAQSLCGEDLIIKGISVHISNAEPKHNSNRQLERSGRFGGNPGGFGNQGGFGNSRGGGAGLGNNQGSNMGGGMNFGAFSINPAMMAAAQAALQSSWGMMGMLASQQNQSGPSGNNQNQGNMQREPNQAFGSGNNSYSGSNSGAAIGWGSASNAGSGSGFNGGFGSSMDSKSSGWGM

For the compound `CC1COCCN1c1nc2ccc(NN=C(C#N)C#N)cc2s1` (stereo not drawn) [Compound 13, (2-(3-methylmorpholino)benzo[d]thiazol-6-yl)carbonohydrazonoyl dicyanide], the inhibition at 3 µM at TDP-43 protein turned out to be 100%. In addition, the “Mouse microsomes (% remaining)” value in data set [1] was 84.8 % remaining. The compound also yielded an IC50 at Tau of 20 nM.
As for `N#CC(C#N)=NNc1ccc2nc(N3CCOCC3)oc2c1` [Compound 4, (2-morpholinobenzo[d]oxazol-6-yl)carbonohydrazonoyl dicyanide], the inhibition at 3 µM on TDP-43 protein worked out at 100%. In data set [1], the “Mouse microsomes (% remaining)” value was 98.5 % remaining. In addition, on Tau, the IC50 stood at 56 nM.
In the case of `CCn1c(N2CCOCC2)nc2cc(NN=C(C#N)C#N)ccc21` [Compound 33, (1-ethyl-2-morpholino-1H-benzo[d]imidazol-5-yl)carbonohydrazonoyl dicyanide], the values for the IC50 against TDP-43 protein and against Tau were 124 nM and 4 nM, respectively. The inhibition at 3 µM on TDP-43 protein is 93.9%. In data set [1], the “Mouse microsomes (% remaining)” value is listed as 89 % remaining.
Turning to `Cn1c(N2C3CCC2COC3)nc2cc(NN=C(C#N)C#N)ccc21` [Compound 35, (2-(3-oxa-8-azabicyclo[3.2.1]octan-8-yl)-1-methyl-1H-benzo[d]imidazol-5-yl)carbonohydrazonoyl dicyanide], on TDP-43 protein, the IC50 was 192 nM and the inhibition at 3 µM came out at 62.9%. The “Mouse microsomes (% remaining)” value in data set [1] amounted to 95.1 % remaining. The compound also had an IC50 against Tau of 12 nM.
As to `CC(C)N1CCN(c2nc3ccc(NN=C(C#N)C#N)cc3s2)CC1` [Compound 27, (2-(4-isopropylpiperazin-1-yl)benzo[d]thiazol-6-yl)carbonohydrazonoyl dicyanide], the inhibition at 3 µM at TDP-43 protein is 48.2%. In addition, on Tau, it took 44 nM to reach half-maximal inhibition (IC50).
As for `CC(C)N1CCN(c2nc3ccc(NN=C(C#N)C#N)cc3o2)CC1` [Compound 28, (2-(4-isopropylpiperazin-1-yl)benzo[d]oxazol-6-yl)carbonohydrazonoyl dicyanide], the inhibition at 3 µM on TDP-43 protein came to 57.1%. Also, the “Mouse microsomes (% remaining)” value in data set [1] is recorded as 81.8 % remaining. Half-maximal inhibition at Tau (IC50) required 16 nM.
Take `Cn1c(N2C3CCC2COC3)nc2ccc(NN=C(C#N)C#N)cc21` [Compound 34, (2-(3-oxa-8-azabicyclo[3.2.1]octan-8-yl)-1-methyl-1H-benzo[d]imidazol-6-yl)carbonohydrazonoyl dicyanide]: on TDP-43 protein, the IC50 came to 10 nM and the inhibition at 3 µM amounted to 82.4%. Besides, the “Mouse microsomes (% remaining)” value in data set [1] is listed as 78.2 % remaining. In addition, the IC50 against Tau came out at 12 nM.
Consider `N#CC(C#N)=NNc1ccc2nc(N3CCNCC3)sc2c1` [Compound 24, (2-(piperazin-1-yl)benzo[d]thiazol-6-yl)carbonohydrazonoyl dicyanide], for which, at TDP-43 protein, the IC50 turned out to be 53 nM and the inhibition at 3 µM amounted to 97.9%. In addition, the IC50 against Tau worked out at 168 nM.
On to `Cn1c(N2CCOCC2)nc2cc(NN=C(C#N)C#N)ccc21` [Compound 6, (1-methyl-2-morpholino-1H-benzo[d]imidazol-5-yl)carbonohydrazonoyl dicyanide], for which, at TDP-43 protein, the inhibition at 3 µM turned out to be 97.4%. In addition, the “Mouse microsomes (% remaining)” value in data set [1] was 87.3 % remaining. In addition, at Tau, half-maximal inhibition (IC50) was put at 24 nM.
Regarding `CCn1c(N2CCOCC2)nc2ccc(NN=C(C#N)C#N)cc21` [Compound 32, (1-ethyl-2-morpholino-1H-benzo[d]imidazol-6-yl)carbonohydrazonoyl dicyanide], at TDP-43 protein, the IC50 was 99 nM and the inhibition at 3 µM came to 95.4%. Besides, in data set [1], the “Mouse microsomes (% remaining)” value is reported as 92.3 % remaining. On Tau, this compound yielded an IC50 of 12 nM.
Take `CN1CCN(c2nc3ccc(NN=C(C#N)C#N)cc3o2)CC1` [Compound 14, (2-(4-methylpiperazin-1-yl)benzo[d]oxazol-6-yl)carbonohydrazonoyl dicyanide]: the inhibition at 3 µM on TDP-43 protein was 100%. This compound also came in with an IC50 at Tau of 48 nM.
In the case of `COC1CCN(c2nc3ccc(NN=C(C#N)C#N)cc3s2)CC1` [Compound 9, (2-(4-methoxypiperidin-1-yl)benzo[d]thiazol-6-yl)carbonohydrazonoyl dicyanide], the inhibition at 3 µM at TDP-43 protein turned out to be 100%. For the same compound, the “Mouse microsomes (% remaining)” value in data set [1] is reported as 83.8 % remaining. The compound further had an IC50 at Tau of 36 nM.
On to `CC1CN(C(=O)Nc2nc3ccc(NN=C(C#N)C#N)cc3s2)CC(C)O1` (stereo not drawn) [Compound 39, (2-(2,6-dimethylmorpholine-4-carboxamido)benzo[d]thiazol-6-yl)carbonohydrazonoyl dicyanide], for which the inhibition at 3 µM on TDP-43 protein came to 58.7%. For the same compound, the “Mouse microsomes (% remaining)” value in data set [1] is listed as 88.4 % remaining. The same compound yielded an IC50 against Tau of 44 nM.
For `CC1CN(c2nc3ccc(NN=C(C#N)C#N)cc3s2)CCO1` (stereo not drawn) [Compound 12, (2-(2-methylmorpholino)benzo[d]thiazol-6-yl)carbonohydrazonoyl dicyanide], the inhibition at 3 µM at TDP-43 protein worked out at 100%. Further, the “Mouse microsomes (% remaining)” value in data set [1] is given as 85.1 % remaining. On Tau, this compound returned an IC50 of 32 nM.
In the case of `CC(=O)N1CCN(c2nc3ccc(NN=C(C#N)C#N)cc3s2)CC1` [Compound 30, (2-(4-acetylpiperazin-1-yl)benzo[d]thiazol-6-yl)carbonohydrazonoyl dicyanide], at TDP-43 protein, the IC50 worked out at 146 nM and the inhibition at 3 µM was found to be 88%. The “Mouse microsomes (% remaining)” value in data set [1] worked out at 83.8 % remaining. The compound also gave an IC50 against Tau of 60 nM.
Turning to `CN1CCN(c2nc3ccc(NN=C(C#N)C#N)cc3s2)CC1` [Compound 8, (2-(4-methylpiperazin-1-yl)benzo[d]thiazol-6-yl)carbonohydrazonoyl dicyanide], on TDP-43 protein, the inhibition at 3 µM came out at 100%. The “Mouse microsomes (% remaining)” value in data set [1] came to 77.4 % remaining. Moreover, on Tau, the IC50 was found to be 32 nM.
In the case of `N#CC(C#N)=NNc1ccc2nc(N3CCNCC3)oc2c1` [Compound 25, (2-(piperazin-1-yl)benzo[d]oxazol-6-yl)carbonohydrazonoyl dicyanide], on TDP-43 protein, the IC50 was 53 nM and the inhibition at 3 µM turned out to be 98.2%. Also, the IC50 against Tau was 36 nM.
